Data taken from ChEMBL document CHEMBL1131925, “Modulation of multidrug resistance in tumor cells by taxinine derivatives” (Bioorg Med Chem Lett, 1999).
In brackets after ≈: the same amount, converted by molar mass.

Columns and labels:
[1] = Amount of vincristine (VCR) accumulation in multidrug-resistant human ovarian cancer 2780AD cells at a concentration of 10 ug/mL.; type: functional, A2780 ADR
[2] = Amount of vincristine (VCR) accumulation in multidrug-resistant human ovarian cancer 2780AD cells at a concentration of 1 ug/mL.; type: functional, A2780 ADR
[3] = Cytotoxicity against murine lymphoma L1210 cells; type: functional, cell-based; settings: Mus musculus
[4] = Cytotoxicity against human epidermoid carcinoma KB cells; type: functional, cell-based

In the case of `CC(=O)O[C@@H]1[C@@H]2CC(=O)C(C)=C([C@@H](OC(C)=O)[C@H](OC(C)=O)[C@]3(C)CC[C@H](OC(=O)c4ccccc4)[C@@]4(CO4)[C@@H]13)C2(C)C`, the Vincristine accumulation [1] is reported as 402% and the “Vincristine accumulation (% of control)” value [2] is reported as 140%.
For `C=C1[C@@H](OC(=O)/C=C/c2ccccc2)CC[C@@]2(C)[C@@H](OC(=O)/C=C/c3ccccc3)[C@H](OC(=O)/C=C/c3ccccc3)C3=C(C)C(=O)C[C@@H]([C@@H](OC(C)=O)[C@H]12)C3(C)C`, the Vincristine accumulation [1] was 273% and the “Vincristine accumulation (% of control)” value [2] was 181%.
With `C=C1[C@@H](OC(=O)c2ccccc2)CC[C@@]2(C)[C@@H](OC(C)=O)[C@H](OC(C)=O)C3=C(C)[C@@H](O)C[C@@H]([C@@H](OC(C)=O)[C@H]12)C3(C)C` the Vincristine accumulation [1] was 649% and the “Vincristine accumulation (% of control)” value [2] was 151%.
In the case of `C=C1[C@@H](O[Si](CC)(CC)CC)CC[C@@]2(C)[C@@H](OC(C)=O)[C@H](OC(C)=O)C3=C(C)C(=O)C[C@@H]([C@@H](OC(C)=O)[C@H]12)C3(C)C`, the Vincristine accumulation [1] is reported as 669% and the “Vincristine accumulation (% of control)” value [2] is reported as 213%.
With `C=C1[C@@H](OC(=O)/C=C/c2ccccc2)CC[C@@]2(C)[C@@H](O)[C@H](O)C3=C(C)C(=O)C[C@@H]([C@@H](OC(C)=O)[C@H]12)C3(C)C` the Vincristine accumulation [1] was 619% and the “Vincristine accumulation (% of control)” value [2] was 274%.
For `C=C1[C@@H](OCOCc2ccccc2)CC[C@@]2(C)[C@@H](OC(C)=O)[C@H](OC(C)=O)C3=C(C)C(=O)C[C@@H]([C@@H](OC(C)=O)[C@H]12)C3(C)C`, the IC50 [3] was 8 µg/mL (≈ 13.4 µM), the IC50 [4] was 9 µg/mL (≈ 15.1 µM) and the Vincristine accumulation [1] was 1110%. The “Vincristine accumulation (% of control)” value [2] was 401%.
In the case of `C=C1[C@@H](O)CC[C@@]2(C)[C@@H](OC(C)=O)[C@H](OC(C)=O)C3=C(C)[C@H](OC(=O)/C=C/c4ccccc4)C[C@@H]([C@@H](OC(C)=O)[C@H]12)C3(C)C`, the Vincristine accumulation [1] is reported as 551% and the “Vincristine accumulation (% of control)” value [2] is reported as 213%.
In the case of `C=C1[C@@H](O)CC[C@@]2(C)[C@@H](OC(C)=O)[C@H](OC(C)=O)C3=C(C)C(=O)C[C@@H]([C@@H](OC(C)=O)[C@H]12)C3(C)C` [TAXININE A], the Vincristine accumulation [1] is reported as 461% and the “Vincristine accumulation (% of control)” value [2] is reported as 153%.
With `C=C1[C@@H](OC(=O)/C=C/c2ccccc2)CC[C@@]2(C)[C@@H](OC(C)=O)[C@H](OC(C)=O)C3=C(C)[C@H](OC(=O)/C=C/c4ccccc4)C[C@@H]([C@@H](OC(C)=O)[C@H]12)C3(C)C` the Vincristine accumulation [1] was 234% and the “Vincristine accumulation (% of control)” value [2] was 157%.
In the case of `CC(=O)O[C@@H]1[C@@H]2CC(=O)C(C)=C([C@@H](OC(C)=O)[C@H](OC(C)=O)[C@]3(C)CC[C@H](O)[C@@]4(CO4)[C@@H]13)C2(C)C`, the Vincristine accumulation [1] is reported as 364% and the “Vincristine accumulation (% of control)” value [2] is reported as 180%.
For `C=C1[C@@H](OC(=O)c2ccccc2)CC[C@@]2(C)[C@@H](OC(=O)c3ccccc3)[C@H](OC(=O)c3ccccc3)C3=C(C)C(=O)C[C@@H]([C@@H](OC(C)=O)[C@H]12)C3(C)C`, the Vincristine accumulation [1] was 324% and the “Vincristine accumulation (% of control)” value [2] was 132%.
With `CC[Si](CC)(CC)O[C@H]1CC[C@@]2(C)[C@@H](OC(C)=O)[C@H](OC(C)=O)C3=C(C)C(=O)C[C@@H]([C@@H](OC(C)=O)[C@@H]2[C@@]12CO2)C3(C)C` the Vincristine accumulation [1] was 748% and the “Vincristine accumulation (% of control)” value [2] was 227%.
For `C=C1[C@@H](O)CC[C@@]2(C)[C@@H](OC(C)=O)[C@H](OC(C)=O)C3=C(C)[C@@H](OC(=O)c4ccccc4)C[C@@H]([C@@H](OC(C)=O)[C@H]12)C3(C)C`, the Vincristine accumulation [1] was 643% and the “Vincristine accumulation (% of control)” value [2] was 185%.
In the case of `C=C1[C@@H](O)CC[C@@]2(C)[C@@H](OC(C)=O)[C@H](OC(C)=O)C3=C(C)[C@@H](OC(=O)/C=C/c4ccccc4)C[C@@H]([C@@H](OC(C)=O)[C@H]12)C3(C)C`, the Vincristine accumulation [1] is reported as 699% and the “Vincristine accumulation (% of control)” value [2] is reported as 249%.
For `CC(=O)O[C@@H]1[C@@H]2CC(=O)C(C)=C([C@@H](OC(C)=O)[C@H](OC(C)=O)[C@]3(C)CC[C@H](O)[C@]4(CO4)[C@@H]13)C2(C)C`, the Vincristine accumulation [1] was 238% and the “Vincristine accumulation (% of control)” value [2] was 144%.
`CC(=O)O[C@@H]1[C@@H]2CC(=O)C(C)=C([C@@H](OC(C)=O)[C@H](OC(C)=O)[C@]3(C)CC[C@H](OC(=O)/C=C/c4ccccc4)[C@@]4(CO4)[C@@H]13)C2(C)C` showed an IC50 [3] of 3 µg/mL (≈ 4.82 µM), an IC50 [4] of over 10 µg/mL and a Vincristine accumulation [1] of 1027%. The “Vincristine accumulation (% of control)” value [2] was 358%.
With `CC(=O)O[C@@H]1[C@@H]2CC(=O)C(C)=C([C@@H](OC(C)=O)[C@H](OC(C)=O)[C@]3(C)CC[C@H](OC(=O)c4ccccc4)[C@]4(CO4)[C@@H]13)C2(C)C` the Vincristine accumulation [1] was 391% and the “Vincristine accumulation (% of control)” value [2] was 200%.
For `C=C1[C@@H](OC(=O)/C=C/c2ccccc2)CC[C@@]2(C)[C@@H](OC(C)=O)[C@H](OC(C)=O)C3=C(C)C(=O)C[C@@H]([C@@H](OC(C)=O)[C@H]12)C3(C)C`, the Vincristine accumulation [1] was 571% and the “Vincristine accumulation (% of control)” value [2] was 195%.
With `C=C1[C@@H](OC(=O)/C=C/c2ccccc2)CC[C@@]2(C)[C@@H](OC(=O)c3ccccc3)[C@H](OC(=O)c3ccccc3)C3=C(C)C(=O)C[C@@H]([C@@H](OC(C)=O)[C@H]12)C3(C)C` the Vincristine accumulation [1] was 210% and the “Vincristine accumulation (% of control)” value [2] was 141%.
With `C=C1[C@@H](O)CC[C@@]2(C)[C@@H](OC(C)=O)[C@H](OC(C)=O)C3=C(C)C(=O)C[C@@H]([C@@H](OC(=O)/C=C/c4ccccc4)[C@H]12)C3(C)C` the Vincristine accumulation [1] was 727% and the “Vincristine accumulation (% of control)” value [2] was 207%.
With `C=C1[C@@H](O)CC[C@@]2(C)[C@@H](OC(C)=O)[C@H](OC(C)=O)C3=C(C)[C@H](O)C[C@@H]([C@@H](OC(C)=O)[C@H]12)C3(C)C` the Vincristine accumulation [1] was 290% and the “Vincristine accumulation (% of control)” value [2] was 149%.
For `C=C1[C@@H](OC(=O)/C=C/c2ccccc2)CC[C@@]2(C)[C@@H](OC(=O)/C=C/c3ccccc3)[C@H](OC(=O)/C=C/c3ccccc3)C3=C(C)C(=O)C[C@@H]([C@@H](OC(=O)/C=C/c4ccccc4)[C@H]12)C3(C)C`, the Vincristine accumulation [1] was 230% and the “Vincristine accumulation (% of control)” value [2] was 186%.
With `C=C1[C@@H](OC(=O)c2ccccc2)CC[C@@]2(C)[C@@H](OC(C)=O)[C@H](OC(C)=O)C3=C(C)[C@H](OC(=O)c4ccccc4)C[C@@H]([C@@H](OC(C)=O)[C@H]12)C3(C)C` the Vincristine accumulation [1] was 391% and the “Vincristine accumulation (% of control)” value [2] was 197%.
For `C=C1[C@@H](OC(=O)/C=C/c2ccccc2)CC[C@@]2(C)[C@@H](O)[C@H](O)C3=C(C)C(=O)C[C@@H]([C@@H](O)[C@H]12)C3(C)C`, the Vincristine accumulation [1] was 518% and the “Vincristine accumulation (% of control)” value [2] was 225%.
In the case of `CC[Si](CC)(CC)O[C@H]1CC[C@@]2(C)[C@@H](OC(C)=O)[C@H](OC(C)=O)C3=C(C)C(=O)C[C@@H]([C@@H](OC(C)=O)[C@@H]2[C@]12CO2)C3(C)C`, the Vincristine accumulation [1] is reported as 752% and the “Vincristine accumulation (% of control)” value [2] is reported as 233%.
With `COc1ccc(CCN(C)CCCC(C#N)(c2ccc(OC)c(OC)c2)C(C)C)cc1OC` (centres undefined) [VERAPAMIL] the Vincristine accumulation [1] was 739% and the “Vincristine accumulation (% of control)” value [2] was 254%.
With `C=C1[C@@H](OC(=O)c2ccccc2)CC[C@@]2(C)[C@@H](OC(C)=O)[C@H](OC(C)=O)C3=C(C)C(=O)C[C@@H]([C@@H](OC(=O)c4ccccc4)[C@H]12)C3(C)C` the Vincristine accumulation [1] was 470% and the “Vincristine accumulation (% of control)” value [2] was 146%.
With `C=C1[C@@H](OC(=O)c2ccccc2)CC[C@@]2(C)[C@@H](OC(C)=O)[C@H](OC(C)=O)C3=C(C)C(=O)C[C@@H]([C@@H](OC(C)=O)[C@H]12)C3(C)C` the Vincristine accumulation [1] was 645% and the “Vincristine accumulation (% of control)” value [2] was 184%.
With `C=C1[C@@H](O)CC[C@@]2(C)[C@@H](OC(C)=O)[C@H](OC(C)=O)C3=C(C)C(=O)C[C@@H]([C@@H](O)[C@H]12)C3(C)C` the Vincristine accumulation [1] was 271% and the “Vincristine accumulation (% of control)” value [2] was 139%.
In the case of `C=C1[C@@H](O)CC[C@@]2(C)[C@@H](OC(C)=O)[C@H](OC(C)=O)C3=C(C)[C@@H](O)C[C@@H]([C@@H](OC(C)=O)[C@H]12)C3(C)C`, the Vincristine accumulation [1] is reported as 422% and the “Vincristine accumulation (% of control)” value [2] is reported as 164%.
